Experiments:
mTor = biological target: T1, mTor (Homo sapiens, UniProt P42345); experiment: In vitro kinase inhibition, mTor (Millipore/Merck kinases panel screening); format: biochemical; conditions: compound at 0.03 μM
T1 construct: purchased Millipore/Merck KGA
Procedure: (§1) In vitro kinase inhibition activities included Pi3k and mTor activities can be tested with Millipore/Merck KGA of Europe in their kinases panel screening. Animal antitumor activity testing can be conducted by various cancer xenograft models for a compound of formula I.
(§2) The following compounds or a pharmaceutically acceptable salt thereof, but not limited, can also be prepared similarly according to the methods described in Scheme I-Scheme II. They are also tested for the inhibitions on mTor or pi3k kinases, or tumor cell lines.

pi3K = experiment: In vitro kinase inhibition, pi3K (Millipore/Merck kinases panel screening); format: biochemical; conditions: compound at 0.03 μM
Procedure: as §1, §2

Molecule	activity at 0.03 µM (mTor; scaffold drawing 7 series)	pi3K % activity @0.03 μM (pi3K; scaffold drawing 7 series)	also measured
Fc1ccccc1-c1ccc2ncc3c(c2c1)n(-c1ccc(Cl)c(C(F)(F)F)c1)c1nncn31 [2-Flurophenyl, 4-Cl, H, 16-[4-chloro-3-(trifluoromethyl)phenyl]-4-(2-fluorophenyl)-8,11,13,14,16-pentaazatetracyclo-[8.6.0.0^2,7.0^11,15]hexadeca-1(10),2,4,6,8,12,14-heptaene]	55%	–	–
FC(F)(F)c1cccc(-n2c3c4cc(-c5cnc6ccccc6c5)ccc4ncc3n3cnnc23)c1 [3-quinoline, H, H, 4-(quinolin-3yl)-16-[3-(trifluoromethyl)phenyl]-8,11,13,14,16-pentaazatetracyclo-[8.6.0.0^2,7.0^11,15]hexadeca-1(10),2,4,6,8,12,14-heptaene]	-5%	68%	–
2-(4-methylpiperazin-1-yl)-N-(5-{16-[3-(trifluoromethyl)phenyl]-8,11,13,14,16-pentaazatetra-cyclo[8.6.0.0^2,7.0^11,15]hexadeca-1(10),2,4,6,8,12,14-heptaen-4-yl}pyridin-2-yl)acetamide	–	97%	mTor % activity @0.03 μM (mTor; scaffold drawing 7 series): 46%
FC(F)(F)c1ccc(-n2c3c4cc(-c5cnc6ccccc6c5)ccc4ncc3n3cnnc23)cc1 [3-quinoline, H, H, 4-(quinolin-3yl)-16-[4-(trifluoromethyl)phenyl]-8,11,13,14,16-pentaazatetracyclo-[8.6.0.0^2,7.0^11,15]hexadeca-1(10),2,4,6,8,12,14-heptaene]	–	–	activity at 0.03 µM (mTor; scaffold drawing 34 series): 68%; pi3K % activity @0.03 μM (pi3K; scaffold drawing 34 series): 99%
NCC(=O)Nc1ccc(-c2ccc3ncc4c(c3c2)n(-c2ccc(Cl)c(C(F)(F)F)c2)c2nncn42)cn1 [2-amino-N-(5-{16-[4-chloro-3-(trifluoromethyl)phenyl]-8,11,13,14,16-pentaazatetracyclo-[8.6.0.0^2,7.0^11,15]hexadeca-1(10),2,4,6,8,12,14-heptaen-4-yl}pyridin-2-yl)acetamide]	9%	83%	–
Fc1ccc(-c2ccc3ncc4c(c3c2)n(-c2ccc(Cl)c(C(F)(F)F)c2)c2nncn42)cc1F [3,4-Diflurophenyl, 4-Cl, H, 16-[4-chloro-3-(trifluoromethyl)phenyl]-4-(3,4-difluorophenyl)-8,11,13,14,16-pentaazatetra-cyclo-[8.6.0.0^2,7.0^11,15]hexadeca-1(10),2,4,6,8,12,14-heptaene]	–	–	mTor % activity @0.03 μM (mTor; scaffold drawing 7 series): 31%
CN(C)CC(=O)Nc1ccc(-c2ccc3ncc4c(c3c2)n(-c2cccc(C(F)(F)F)c2)c2nncn42)cn1 [2-(dimethylamino)-N-(5-{16-[3-(trifluoromethyl)phenyl]-8,11,13,14,16-pentaazatetracyclo-[8.6.0.0^2,7.0^11,15]hexadeca-1(10),2,4,6,8,12,14-heptaen-4-yl}pyridin-2-yl)acetamide]	7%	89%	–
FC(F)(F)c1cc(-n2c3c4cc(-c5cnc6ccccc6c5)ccc4ncc3n3cnnc23)ccc1Cl [3-quinoline, 4-Cl, H, 16-[4-chloro-3-(trifluoromethyl)phenyl]-4-(quinolin-3-yl)-8,11,13,14,16-pentaazatetracyclo-[8.6.0.0^2,7.0^11,15]hexadeca-1(10),2,4,6,8,12,14-heptaene]	11%	84%	–
Fc1cc(-n2c3c4cc(-c5cnc6ccccc6c5)ccc4ncc3n3cnnc23)cc(C(F)(F)F)c1 [3-quinoline, 5-F, H, 16-[3-fluoro-5-(trifluoromethyl)phenyl]-4-(quinolin-3yl)-8,11,13,14,16-pentaazatetracyclo-[8.6.0.0^2,7.0^11,15]hexadeca-1(10),2,4,6,8,12,14-heptaene]	-8%	–	–
Fc1cccc(-c2ccc3ncc4c(c3c2)n(-c2ccc(Cl)c(C(F)(F)F)c2)c2nncn42)c1 [3-Flurophenyl, 4-Cl, H]	–	–	mTor % activity @0.03 μM (mTor; scaffold drawing 7 series): 46%
12-ethyl-16-[4-fluoro-3 -(trifluoromethyl)phenyl]-4-8,11,13,14,16-pentaazatetracyclo[8.6.0.0^2,7.0^11,15]hexadeca-1(10),2,4,6,8,12,14-heptaene [3-pyridine, 4-F, CH2CH3]	–	–	mTor % activity @0.03 μM (mTor; scaffold drawing 7 series): 73%
FC(F)(F)c1cc(-n2c3c4cc(-c5cnc6ccccc6c5)ccc4ncc3n3cnnc23)cc(C(F)(F)F)c1 [3-quinoline, 5-CF3, H, 16-[3,5-(trifluoromethyl)phenyl]-4-(quinolin-3yl)-8,11,13,14,16-pentaazatetracyclo-[8.6.0.0^2,7.0^11,15]hexadeca-1(10),2,4,6,8,12,14-heptaene]	–	–	mTor % activity @0.03 μM (mTor; scaffold drawing 7 series): 0%
Fc1ccc(C(F)(F)F)cc1-n1c2c3cc(-c4cnc5ccccc5c4)ccc3ncc2n2cnnc12 [3-quinoline, 6-F, H, 16-[2-fluoro-5-(trifluoromethyl)phenyl]-4-(quinolin-3yl)-8,11,13,14,16-pentaazatetracyclo-[8.6.0.0^2,7.0^11,15]hexadeca-1(10),2,4,6,8,12,14-heptaene]	0%	–	–

The next lines start with results.

activity at 0.03 µM (mTor; scaffold drawing 7 series)	pi3K % activity @0.03 μM (pi3K; scaffold drawing 7 series)	Molecule	also measured
57%	–	O=C1CCN(CC(=O)Nc2ccc(-c3ccc4ncc5c(c4c3)n(-c3ccc(Cl)c(C(F)(F)F)c3)c3nncn53)cn2)CC1 [N-(5-{16-[4-chloro-3-(trifluoromethyl)phenyl]-8,11,13,14,16-pentaazatetracyclo[8.6.0.0^2,7.0^11,15]-hexadeca-1(10),2,4,6,8,12,14-heptaen-4-yl}pyridin-2-yl)-2-(4-oxopiperidin-1-yl)acetamide]	–
5%	–	CC(=O)Nc1ccc(-c2ccc3ncc4c(c3c2)n(-c2ccc(Cl)c(C(F)(F)F)c2)c2nncn42)cn1 [N-(5-pyridin-2-yl)acetamide, 4-Cl, H, N-(5-{16-[4-chloro-3-(trifluoromethyl)phenyl]-8,11,13,14,16-pentaazatetracyclo-[8.6.0.0^2,7.0^11,15]hexadeca-1(10),2,4,6,8,12,14-heptaen-4-yl}pyridin-2-yl)acetamide]	–
15%	98%	FC(F)(F)c1cc(-n2c3c4cc(-c5ccc(NCCN6CCCC6)nc5)ccc4ncc3n3cnnc23)ccc1Cl [5-{16-[4-chloro-3-(trifluoromethyl)phenyl]-8,11,13,14,16-pentaazatetracyclo[8.6.0.0^2,7.0^11,15]-hexadeca-1(10),2,4,6,8,12,14-heptaen-4-yl}-N-[2-(pyrrolidin-1-yl)ethyl]pyridin-2-amine]	–
-19%	38%	Nc1ccc(-c2ccc3ncc4c(c3c2)n(-c2ccc(Cl)c(C(F)(F)F)c2)c2nncn42)cn1 [5-pyridin-2-amine, 4-Cl, H, 5-{16-[4-chloro-3-(trifluoromethyl)phenyl]-8,11,13,14,16-pentaazatetracyclo-[8.6.0.0^2,7.0^11,15]hexadeca-1(10),2,4,6,8,12,14-heptaen-4-yl}pyridin-2-amine]	–
4%	101%	FC(F)(F)c1cccc(-n2c3c4cc(-c5ccc(NCCN6CCCC6)nc5)ccc4ncc3n3cnnc23)c1 [N-[2-(pyrrolidin-1-yl)ethyl]-5-{16-[3-(trifluoromethyl)phenyl]-8,11,13,14,16-pentaazatetracyclo-[8.6.0.0^2,7.0^11,15]-hexadeca-1(10),2,4,6,8,12,14-heptaen-4-yl}pyridin-2-amine]	–
15%	–	CN(C)CC(=O)Nc1ccc(-c2ccc3ncc4c(c3c2)n(-c2ccc(Cl)c(C(F)(F)F)c2)c2nncn42)cn1 [N-(5-{16-[4-chloro-3-(trifluoromethyl)phenyl]-8,11,13,14,16-pentaazatetracyclo[8.6.0.0^2,7.0^11,15]-hexadeca-1(10),2,4,6,8,12,14-heptaen-4-yl}pyridin-2-yl)-2-(dimethylamino)acetamide]	–
-4%	74%	CN1CCN(CC(=O)Nc2ccc(-c3ccc4ncc5c(c4c3)n(-c3ccc(Cl)c(C(F)(F)F)c3)c3nncn53)cn2)CC1 [N-(5-{16-[4-chloro-3-(trifluoromethyl)phenyl]-8,11,13,14,16-pentaazatetracyclo[8.6.0.0^2,7.0^11,15]-hexadeca-1(10),2,4,6,8,12,14-heptaen-4-yl}pyridin-2-yl)-2-(4-methylpiperazin-1-yl)acetamide]	–
4%	82%	O=C(CN1CCCC1)Nc1ccc(-c2ccc3ncc4c(c3c2)n(-c2ccc(Cl)c(C(F)(F)F)c2)c2nncn42)cn1 [N-(5-{16-[4-chloro-3-(trifluoromethyl)phenyl]-8,11,13,14,16-pentaazatetracyclo[8.6.0.0^2,7.0^11,15]-hexadeca-1(10),2,4,6,8,12,14-heptaen-4-yl}pyridin-2-yl)-2-(pyrrolidin-1-yl)acetamide]	–
-5%	87%	COCCNc1ccc(-c2ccc3ncc4c(c3c2)n(-c2ccc(Cl)c(C(F)(F)F)c2)c2nncn42)cn1 [5-{16-[4-chloro-3-(trifluoromethyl)phenyl]-8,11,13,14,16-pentaazatetracyclo[8.6.0.0^2,7.0^11,15]-hexadeca-1(10),2,4,6,8,12,14-heptaen-4-yl}-N-(2-methoxyethyl)pyridin-2-amine]	–
-3%	92%	COCCNc1ccc(-c2ccc3ncc4c(c3c2)n(-c2cccc(C(F)(F)F)c2)c2nncn42)cn1 [N-(2-methoxyethyl)-5-{16-[3-(trifluoromethyl)phenyl]-8,11,13,14,16-pentaazatetracyclo-[8.6.0.0^2,7.0^11,15]-hexadeca-1(10),2,4,6,8,12,14-heptaen-4-yl}pyridin-2-amine]	–
14%	–	O=C(CN1CCC(O)CC1)Nc1ccc(-c2ccc3ncc4c(c3c2)n(-c2ccc(Cl)c(C(F)(F)F)c2)c2nncn42)cn1 [N-(5-{16-[4-chloro-3-(trifluoromethyl)phenyl]-8,11,13,14,16-pentaazatetracyclo[8.6.0.0^2,7.0^11,15]-hexadeca-1(10),2,4,6,8,12,14-heptaen-4-yl}pyridin-2-yl)-2-(4-hydroxypiperidin-1-yl)acetamide]	–

Source: patent publication US10112945B2, “Fused quinoline compunds as PI3K, mTOR inhibitors” (ADVENCHEN PHARMACEUTICALS, NANJING LTD., priority 2014, dated 2018)
